What is called IC50 is the concentration needed to halve the response being measured.

In experiment [1] the test system is TPA induced ear edema in mouse. Briefly: TPA induced mouse ear edema assay. It counts as in vivo, mouse (male ICR). The settings on record: 0.1 mg applied to right ear immediately after TPA; 6 hour. Here is the method:
Male ICR mice, 5 week old, were divided into groups of seven to eight. 2 μg of TPA (phorbor 12-ministate; Sigma Co.) in 20 μl acetone was applied to the inner and outer surface of right ear of each mouse to cause a reaction. 0.1 mg of compound was dissolved in 20 μl of a tetrahydrofuran-methanol mixture (mixture ratio 1:1) and the solution (20 μl) applied to the right ear immediately after TPA treatment. After 6 hour, the animals were sacrificed and right ear was punched out (.phi. […]) and weighed. The effect of comppund.was calculated as % inhibition as follows: [formula]

Experiment [2] concerns Type IV PDE. Briefly: PDE IV inhibitory activity (isozyme partially purified from rat neutrophils, 3H-cAMP substrate). It is filed as biochemical. The settings on record: rat neutrophil PDE IV, 30° C., 30 minutes, read-out: PDE IV inhibiting action IC50. How it is done:
Type I, III, IV, and V PDE isozymes were prepared to study the PDE inhibitory activities of and selectivities with the compound of the invention [Trends Pharmacol Sci., 12, 19-27 (1991)]. Type I PDE was purchased from Sigma Corp. Type III, IV, and V PDE isozymes were partially purified from platelets (Type III and V) or neutrophils (Type IV) collected from rats. Each enzyme source was homogenized in a buffer (pH 6.5) containing 20 mM bisTris, 2 mM EDTA (i.e., ethlenediamine tetraacetate), 2-mercaptoethanol, 0.001 mM pepstatin and 0.01 mM leupeptin and was centrifuged at 30000×G for 30 minutes to obtain a supernatant, which was applied to an ion exchange column (Q-sepharose first flow, Pharmacia Corp.) and was eluted with 0 to 1M sodium acetate. Partially purified isozymes were identified by observing the inhibitory effects of conventional inhibitors.
Each PDE isozyme and the test compound dissolved in DMSO (i.e., dimethylsulfoxide) were added to 50 mM Tris--HCI buffer containing 5 mM magnesium chloride. ^3 H-cAMP (for type III and IV PDE) or ^3 H-cGMP (for type I and V PDE) were added as substrates and were reacted at 30° C. for 30 minutes. The reaction was terminated by placing the test tube in boiling water of 100° C. for 5 minutes. The nucleotides formed by PDE were broken down to ^3 H-adenosine or ^3 H-guanosine by 5'-nucleotidase. The substrate and reaction product were separated through an ion-exchange column (i.e., QAE sephadex, Pharmacia Corp.)
The eluted ^3 -H-nucleoside was measured for its radioactivity by a liquid scintillation counter. The inhibitory activities of the compound of the present invention are shown by the IC50 value (M). Further, the inhibitory activities of the test samples against type I, III, and V PDE are 1/10 or less than that against Type IV PDE.

With `COc1ccc(N(C)C2=C(C)C(=O)CC2)cc1O[C@@H]1C[C@H]2CC[C@@H]1C2` (racemic) [Compound No. 47, 3-[3-[(1RS,2RS,4SR)-bicyclo[2.2. 1]hept-2-yloxy]4-methoxy-N-methylanilino]-2-methyl-2-cyclopenten-1-one], in experiment [1], the “% Inhibition of ear edema” value came to 59.9%. For the same compound, in experiment [2], the IC50 was determined as 1600 nM.

On to `COc1ccc(N(Cc2ccccc2)C2=CC(=O)CC2)cc1O[C@@H]1C[C@H]2CC[C@@H]1C2` (racemic) [Compound No. 81, 3-[N-benzyl-3-[(1RS,2RS,4SR)-bicyclo[2.2. 1]hept-2-yloxy]4-methoxyanilino]-2-cyclopenten-1-one], for which the “% Inhibition of ear edema” value in experiment [1] worked out at 82.7%. The IC50 in experiment [2] turned out to be 1000 nM.

With `COc1ccc(N(Cc2ccncc2)C2=CC(=O)CCC2)cc1O[C@@H]1C[C@H]2CC[C@@H]1C2` (racemic) [Compound No. 85, 3-[3-[(1RS,2RS,4SR)-bicyclo[2.2. 1]hept-2-yloxy]4-methoxy-N-(4-pyridylmethyl)anilino]-2-cyclohexen-1-one], the “% Inhibition of ear edema” value in experiment [1] turned out to be 70.3%. Further, in experiment [2], the IC50 worked out at 3600 nM.

With `COc1ccc(N(Cc2ccc3ccccc3n2)C2=CC(=O)CC2)cc1O[C@@H]1C[C@H]2CC[C@@H]1C2` (relative stereo) [Compound No. 82, 3-[3-[(1RS,2RS,4SR)-bicyclo[2.2. 1]hept-2-yloxy]4-methoxy-N-(2-quinolinemethyl)anilino]-2-cyclopenten-1-one], the “% Inhibition of ear edema” value in experiment [1] turned out to be 84.4%. Moreover, the concentration for half-maximal inhibition (IC50) in experiment [2] was determined as 530 nM.

For the compound `COc1ccc(NC2=CC(=O)CCC2)cc1O[C@@H]1C[C@H]2CC[C@@H]1C2` (relative stereo) [Compound No. 83, 3-[3-[rel(1R,2R,4S)-bicyclo[2.2. 1]hept-2-yloxy]-4-methoxyanilino]-2-cyclohexen-1-one], the “% Inhibition of ear edema” value in experiment [1] is 70.5%. Further, the IC50 in experiment [2] came to 1600 nM.

Regarding `COc1ccc(N(Cc2ccccc2)C2=CC(=O)CCC2)cc1O[C@@H]1C[C@H]2CC[C@@H]1C2` (relative stereo) [Compound No. 84, 3-[N-benzyl-3-[rel(1R,2R,4S)-bicyclo[2.2. 1]hept-2-yloxy]-4-methoxyanilino]-2-cyclohexen-1-one], the “% Inhibition of ear edema” value in experiment [1] was determined as 71.8%. Also, the IC50 in experiment [2] worked out at 1400 nM.

For `COc1ccc(NC2=CC(=O)CCC2)cc1OC1CCCC1` [Compound No. 2, 3-(3-cyclopentyloxy-4-methoxyanilino)-2-cyclohexen-1-one], the “% Inhibition of ear edema” value in experiment [1] stood at 65.0%. Also, the IC50 in experiment [2] was determined as 3700 nM.

Regarding `COc1ccc(NC2=C(Br)C(=O)CC2)cc1OC1CCCC1` [Compound No. 7, 2-bromo-3-(3-cyclopentyloxy-4-methoxyanilino)-2-cyclopenten-1-one], the “% Inhibition of ear edema” value in experiment [1] worked out at 55.8%. For the same compound, the IC50 in experiment [2] is 280 nM.

Regarding `COc1ccc(NC2=C(C)C(=O)CC2)cc1OCCc1ccccc1` [Compound No. 12, 3-(4-methoxy-3-phenethyloxyanilino)-2-methyl-2-cyclopenten-1-one], in experiment [1], the “% Inhibition of ear edema” value came to 52.5%. Further, the IC50 in experiment [2] worked out at 710 nM.

`COc1ccc(NC2=CC(=O)CC2)cc1OC1CCCCC1` [Compound No. 13, 3-(3-cyclohexyloxy-4-methoxyanilino)-2-cyclopenten-1-one]: in experiment [1], the “% Inhibition of ear edema” value was 51.8%. In addition, in experiment [2], the IC50 was 7400 nM.

Regarding `COc1ccc(NC2=C(C)C(=O)CC2)cc1OCC1CC1` [Compound No. 16, 3-(3-cyclopropylmethoxy-4-methoxyanilino)-2-methyl-2-cyclogenten-1-one], in experiment [1], the “% Inhibition of ear edema” value is listed as 72.1%. Moreover, in experiment [2], the IC50 worked out at 1000 nM.

With `CCCCOc1cc(NC2=CC(=O)CC2)ccc1OC` [Compound No. 17, 3-(3-butoxy-4-methoxyanilino)-2-cyclopenten-1-one], in experiment [1], the “% Inhibition of ear edema” value was found to be 57.1%. Also, the IC50 in experiment [2] came out at 14000 nM.

Regarding `COc1ccc(NC2=CC(=O)CCC2)cc1OC1Cc2ccccc2C1` [Compound No. 19, 3-[3-(2-indanyloxy)-4-methoxyanilino]-2-cyclohexen-1-one], the “% Inhibition of ear edema” value in experiment [1] is on record as 76.3%. Further, in experiment [2], the 50% inhibitory concentration (IC50) stood at 1800 nM.

On to `COc1ccc(N(C)C2=CC(=O)CC2)cc1OC1CCCC1` [Compound No. 26, 3-(3-cyclopentyloxy-4-methoxy-N-methylanilino)-2-cyclopenten-1-one], for which the “% Inhibition of ear edema” value in experiment [1] came to 82.0%. The IC50 in experiment [2] stood at 800 nM.

Regarding `COc1ccc(N(C)C2=CC(=O)CCC2)cc1OC1CCCC1` [Compound No. 27, 3-(3-cyclopentyloxy-4-methoxy-N-methylanilino)-2-cyclohexen-1-one], in experiment [1], the “% Inhibition of ear edema” value is recorded as 86.4%. In experiment [2], the IC50 stood at 1900 nM.

On to `COc1ccc(N(Cc2ccncc2)C2=CC(=O)CC2)cc1OC1CCCC1` [Compound No. 28, 3-[3-cyclopentyloxy-4-methoxy-N-(4-pyridylmethyl)anilino]-2-cyclopenten-1-one], for which the “% Inhibition of ear edema” value in experiment [1] worked out at 71.5%. For the same compound, in experiment [2], the IC50 was 4300 nM.

In the case of `COc1ccc(N(Cc2ccccc2)C2=CC(=O)CC2)cc1OC1CCCC1` [Compound No. 30, 3-(N-benzyl-3-cyclopentyloxy-4-methoxyanilino)-2-cyclopenten-1-one], in experiment [1], the “% Inhibition of ear edema” value came out at 78.4%. Besides, the concentration for half-maximal inhibition (IC50) in experiment [2] stood at 2600 nM.

For the compound `CCC1=C(Nc2ccc(OC)c(OC3CCCC3)c2)CCC1=O` [Compound No. 31, 3-(3-cyclopentyloxy-4-methoxyanilino)-2-ethyl-2-cyclopenten-1-one], the “% Inhibition of ear edema” value in experiment [1] is 73.4%. For the same compound, the IC50 in experiment [2] stood at 220 nM.

On to `COc1ccc(NC2=C(Cc3ccccc3)C(=O)CC2)cc1OC1CCCC1` [Compound No. 33, 2-benzyl-3-(3-cyclopentyloxy-4-methoxyanilino)-2-cyclopenten-1-one], for which the “% Inhibition of ear edema” value in experiment [1] turned out to be 81.7%. The IC50 in experiment [2] turned out to be 400 nM.

As to `COc1ccc(NC2=C(C)C(=O)CC2)cc1OCCC1Cc2ccccc2C1` [Compound No. 35, 3-[3-[2-(2-indanyl)ethoxy]-4-methoxyanilino]-2-methyl-2-cyclopenten-1-one], the “% Inhibition of ear edema” value in experiment [1] is on record as 52.5%. In addition, in experiment [2], the IC50 is 290 nM.

On to `COc1ccc(NC2=C(C)C(=O)CC2)cc1OC1CCOC1` (stereo not drawn) [Compound No. 37, 3-[4-methoxy-3-(3-2,3,4,5-tetrahydrofuranyloxy)anilino]-2-methyl-2-cyclopenten-1-one], for which the “% Inhibition of ear edema” value in experiment [1] worked out at 51.8%. For the same compound, the IC50 in experiment [2] came out at 1200 nM.

Take `COc1ccc(NC2=C(C)C(=O)CCC2)cc1OC1Cc2ccccc2C1` [Compound No. 48, 3-[3-(2-indanyloxy)-4-methoxyanilino]-2-methyl-2-cyclohexen-1-one]: the “% Inhibition of ear edema” value in experiment [1] came out at 53.8%. Besides, in experiment [2], the IC50 came to 82 nM.

With `COc1ccc(NC2=CC(=O)CC2)cc1OCC1(c2ccccc2)CC1` [Compound No. 49, 3-[4-methoxy-3-[(1-phenylcyclopropyl)methoxy]anilino]-2-cyclopenten-1-one], the “% Inhibition of ear edema” value in experiment [1] is on record as 54.3%. Moreover, the IC50 in experiment [2] is 2300 nM.

Consider `COc1ccc(NC2=C(C)C(=O)CC2)cc1OCC1(c2ccccc2)CC1` [Compound No. 50, 3-[4-methoxy-3-[(1-phenylcyclopropyl)methoxy]anilino]-2-methyl-2-cyclopenten-1-one], for which the “% Inhibition of ear edema” value in experiment [1] turned out to be 62.6%. Moreover, in experiment [2], the IC50 worked out at 620 nM.

The values are drawn from patent publication US6235736A, “3-anilino-2-cycloalkenone derivatives” (Nikken Chemicals Co., Ltd., priority 1997, dated 2001).
